Source: ChEMBL document CHEMBL3882738, “Dimethylarginine Dimethylaminohydrolase inhibitors and methods of use thereof” (2014)
The source made the active and inactive calls. The calls are words filed in the database; no cut-off is given here.

What was measured:
[1] = biological target: T1, N(G),N(G)-dimethylarginine dimethylaminohydrolase 1 (Homo sapiens, UniProt O94760); assay: Inhibition of recombinant human DDAH1 expressed in Escherichia coli BL21 Star (DE3) using SMTC as substrate assessed as decrease in L-citrulline and methanethiol production by CPM-based fluorimetric assay
T1 sequence (O94760 whole entry): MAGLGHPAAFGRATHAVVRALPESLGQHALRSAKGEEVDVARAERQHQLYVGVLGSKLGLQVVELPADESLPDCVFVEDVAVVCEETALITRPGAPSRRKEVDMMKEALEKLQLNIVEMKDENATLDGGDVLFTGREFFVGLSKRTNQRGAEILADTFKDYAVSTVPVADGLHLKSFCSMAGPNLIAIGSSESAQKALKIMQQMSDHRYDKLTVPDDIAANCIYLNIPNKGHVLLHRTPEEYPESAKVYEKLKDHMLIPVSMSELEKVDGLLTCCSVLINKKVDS

[2] = biological target: T1, N(G),N(G)-dimethylarginine dimethylaminohydrolase 1; assay: Inhibition of recombinant human DDAH1 expressed in Escherichia coli BL21 Star (DE3) using ADMA as substrate assessed as decrease in citrulline production after 4 hrs by colorimetric method
[3] = biological target: T1, N(G),N(G)-dimethylarginine dimethylaminohydrolase 1; assay: Inhibition of recombinant human DDAH1 expressed in Escherichia coli BL21 Star (DE3) using ADMA as substrate assessed as decrease in citrulline production at 50 uM after 4 hrs by colorimetric method
[4] = biological target: T1, N(G),N(G)-dimethylarginine dimethylaminohydrolase 1; assay: Inhibition of recombinant human DDAH1 expressed in Escherichia coli BL21 Star (DE3) using SMTC as substrate assessed as decrease in L-citrulline and methanethiol production at 50 uM by CPM-based fluorimetric assay
[5] = biological target: T1, N(G),N(G)-dimethylarginine dimethylaminohydrolase 1; assay: Inhibition of DDAH in HMEC1 assessed as increase in intracellular ADMA levels at 20 uM after 24 hrs by ELISA relative to vehicle-treated control; format: cell-based
[6] = biological target: T1, N(G),N(G)-dimethylarginine dimethylaminohydrolase 1; assay: Inhibition of DDAH in human A549 cells assessed as decrease in serum-stimulated cell proliferation at 20 uM preincubated for 2 hrs followed by fetal bovine serum addition measured 24 hrs post compound treatment by BrdU incorporation assay; format: cell-based
[7] = biological target: T1, N(G),N(G)-dimethylarginine dimethylaminohydrolase 1; assay: Inhibition of recombinant human DDAH1 expressed in Escherichia coli BL21 Star (DE3) using ADMA as substrate assessed as decrease in citrulline production at 50 uM preincubated with protein followed by substrate addition by colorimetric method
[8] = biological target: T1, N(G),N(G)-dimethylarginine dimethylaminohydrolase 1; assay: Inhibition of DDAH in fibroblasts isolated from idiopathic pulmonary fibrosis patient assessed as downregulation of BMPR2 gene expression at 5 to 50 uM relative to vehicle-treated control
[9] = biological target: T1, N(G),N(G)-dimethylarginine dimethylaminohydrolase 1; assay: Inhibition of DDAH in fibroblasts isolated from late idiopathic pulmonary fibrosis patient assessed as upregulation of HO1 gene expression at 50 uM relative to control
[10] = biological target: T1, N(G),N(G)-dimethylarginine dimethylaminohydrolase 1; assay: Inhibition of DDAH in bronchial epithelial cells isolated from chronic obstructive pulmonary disease patient assessed as upregulation of HO1 gene expression at 5 to 50 uM after 24 hrs relative to vehicle-treated control; format: cell-based; conditions: Epithelial cell
[11] = biological target: T1, N(G),N(G)-dimethylarginine dimethylaminohydrolase 1; assay: Inhibition of DDAH in bronchial epithelial cells isolated from chronic obstructive pulmonary disease patient assessed as downregulation of TNF-alpha gene expression at 5 to 50 uM after 24 hrs relative to vehicle-treated control; format: cell-based; conditions: Epithelial cell
[12] = biological target: T1, N(G),N(G)-dimethylarginine dimethylaminohydrolase 1; assay: Inhibition of DDAH in fibroblasts isolated from idiopathic pulmonary fibrosis patient assessed as downregulation of TGFBR2 gene expression at 5 to 50 uM relative to vehicle-treated control
[13] = biological target: T1, N(G),N(G)-dimethylarginine dimethylaminohydrolase 1; assay: Inhibition of DDAH in fibroblasts isolated from idiopathic pulmonary fibrosis patient assessed as downregulation of […] gene expression at 5 to 50 uM relative to vehicle-treated control
[14] = biological target: T1, N(G),N(G)-dimethylarginine dimethylaminohydrolase 1; assay: Inhibition of DDAH in fibroblasts isolated from idiopathic pulmonary fibrosis patient assessed as downregulation of ITGB3 gene expression at 5 to 50 uM relative to vehicle-treated control
[15] = biological target: T1, N(G),N(G)-dimethylarginine dimethylaminohydrolase 1; assay: Inhibition of DDAH in fibroblasts isolated from idiopathic pulmonary fibrosis patient assessed as downregulation of TGFB1 gene expression at 5 to 50 uM relative to vehicle-treated control
[16] = biological target: T1, N(G),N(G)-dimethylarginine dimethylaminohydrolase 1; assay: Inhibition of DDAH in bronchial epithelial cells isolated from chronic obstructive pulmonary disease patient assessed as downregulation of TRPV1 gene expression at 5 to 50 uM after 24 hrs relative to vehicle-treated control; format: cell-based; conditions: Epithelial cell
[17] = biological target: T1, N(G),N(G)-dimethylarginine dimethylaminohydrolase 1; assay: Inhibition of DDAH in fibroblasts isolated from idiopathic pulmonary fibrosis patient assessed as downregulation of SMAD6 gene expression at 5 to 50 uM relative to vehicle-treated control
[18] = biological target: T1, N(G),N(G)-dimethylarginine dimethylaminohydrolase 1; assay: Inhibition of DDAH in fibroblasts isolated from idiopathic pulmonary fibrosis patient assessed as downregulation of BMPR1B gene expression at 5 to 50 uM relative to vehicle-treated control
[19] = biological target: T1, N(G),N(G)-dimethylarginine dimethylaminohydrolase 1; assay: Inhibition of DDAH in fibroblasts isolated from idiopathic pulmonary fibrosis patient assessed as downregulation of ITGB1 gene expression at 5 to 50 uM relative to vehicle-treated control
[20] = biological target: T1, N(G),N(G)-dimethylarginine dimethylaminohydrolase 1; assay: Inhibition of DDAH in fibroblasts isolated from idiopathic pulmonary fibrosis patient assessed as downregulation of BMP2 gene expression at 5 to 50 uM relative to vehicle-treated control
[21] = biological target: T1, N(G),N(G)-dimethylarginine dimethylaminohydrolase 1; assay: Inhibition of DDAH in fibroblasts isolated from idiopathic pulmonary fibrosis patient assessed as downregulation of ITGB5 gene expression at 5 to 50 uM relative to vehicle-treated control
[22] = biological target: T1, N(G),N(G)-dimethylarginine dimethylaminohydrolase 1; assay: Inhibition of DDAH in fibroblasts isolated from idiopathic pulmonary fibrosis patient assessed as downregulation of BMP4 gene expression at 5 to 50 uM relative to vehicle-treated control
[23] = biological target: T1, N(G),N(G)-dimethylarginine dimethylaminohydrolase 1; assay: Inhibition of DDAH in fibroblasts isolated from early idiopathic pulmonary fibrosis patient assessed as upregulation of HO1 gene expression at 50 uM relative to control
[24] = biological target: T1, N(G),N(G)-dimethylarginine dimethylaminohydrolase 1; assay: Inhibition of DDAH in fibroblasts isolated from idiopathic pulmonary fibrosis patient assessed as downregulation of ITGB8 gene expression at 5 to 50 uM relative to vehicle-treated control
[25] = biological target: T1, N(G),N(G)-dimethylarginine dimethylaminohydrolase 1; assay: Inhibition of DDAH in fibroblasts isolated from idiopathic pulmonary fibrosis patient assessed as downregulation of ITGB6 gene expression at 5 to 50 uM relative to vehicle-treated control
[26] = biological target: T1, N(G),N(G)-dimethylarginine dimethylaminohydrolase 1; assay: Inhibition of DDAH in fibroblasts isolated from chronic obstructive pulmonary disease patient assessed as upregulation of HO1 gene expression at 5 to 50 uM after 24 hrs relative to vehicle-treated control
[27] = biological target: T1, N(G),N(G)-dimethylarginine dimethylaminohydrolase 1; assay: Inhibition of DDAH in fibroblasts isolated from idiopathic pulmonary fibrosis patient assessed as downregulation of ITGA5 gene expression at 5 to 50 uM relative to vehicle-treated control
[28] = biological target: T1, N(G),N(G)-dimethylarginine dimethylaminohydrolase 1; assay: Inhibition of DDAH in fibroblasts isolated from idiopathic pulmonary fibrosis patient assessed as downregulation of TGFBR1 gene expression at 5 to 50 uM relative to vehicle-treated control
[29] = biological target: T1, N(G),N(G)-dimethylarginine dimethylaminohydrolase 1; assay: Inhibition of DDAH in fibroblasts isolated from idiopathic pulmonary fibrosis patient assessed as downregulation of MMP8 gene expression at 5 to 50 uM relative to vehicle-treated control
[30] = biological target: Transforming growth factor beta (Homo sapiens) (UniProt P01137+P61812+P10600); assay: Inhibition of TGF-beta-induced acid-soluble collagen levels in lung fibroblasts isolated from late stage idiopathic pulmonary fibrosis patient at 20 uM after 24 hrs by sircol collagen assay; format: protein assay
Chain of Transforming growth factor beta (Homo sapiens) (P01137 whole entry, looked up): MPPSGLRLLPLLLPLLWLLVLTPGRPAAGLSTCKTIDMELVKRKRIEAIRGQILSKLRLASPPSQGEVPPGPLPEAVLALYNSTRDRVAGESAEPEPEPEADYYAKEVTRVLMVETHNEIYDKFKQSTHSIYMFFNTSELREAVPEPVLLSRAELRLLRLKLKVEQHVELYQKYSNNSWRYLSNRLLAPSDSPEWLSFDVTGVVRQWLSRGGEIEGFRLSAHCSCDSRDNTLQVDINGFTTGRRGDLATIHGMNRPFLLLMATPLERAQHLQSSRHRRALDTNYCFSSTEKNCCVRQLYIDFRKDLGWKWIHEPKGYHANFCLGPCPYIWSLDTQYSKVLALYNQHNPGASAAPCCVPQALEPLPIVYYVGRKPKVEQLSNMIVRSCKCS
Chain of Transforming growth factor beta (Homo sapiens) (P10600 whole entry, looked up): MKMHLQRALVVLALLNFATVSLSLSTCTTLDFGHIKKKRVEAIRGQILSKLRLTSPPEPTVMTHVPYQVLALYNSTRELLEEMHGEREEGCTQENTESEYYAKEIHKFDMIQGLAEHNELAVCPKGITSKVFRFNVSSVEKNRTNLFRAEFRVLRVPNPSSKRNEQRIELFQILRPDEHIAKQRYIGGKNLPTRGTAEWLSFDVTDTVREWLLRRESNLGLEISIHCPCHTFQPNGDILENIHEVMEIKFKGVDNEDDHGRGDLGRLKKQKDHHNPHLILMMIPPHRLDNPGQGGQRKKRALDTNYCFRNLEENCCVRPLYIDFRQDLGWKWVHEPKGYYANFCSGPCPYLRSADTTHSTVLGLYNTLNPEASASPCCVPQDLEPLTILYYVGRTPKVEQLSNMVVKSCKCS
Chain of Transforming growth factor beta (Homo sapiens) (P61812 whole entry, looked up): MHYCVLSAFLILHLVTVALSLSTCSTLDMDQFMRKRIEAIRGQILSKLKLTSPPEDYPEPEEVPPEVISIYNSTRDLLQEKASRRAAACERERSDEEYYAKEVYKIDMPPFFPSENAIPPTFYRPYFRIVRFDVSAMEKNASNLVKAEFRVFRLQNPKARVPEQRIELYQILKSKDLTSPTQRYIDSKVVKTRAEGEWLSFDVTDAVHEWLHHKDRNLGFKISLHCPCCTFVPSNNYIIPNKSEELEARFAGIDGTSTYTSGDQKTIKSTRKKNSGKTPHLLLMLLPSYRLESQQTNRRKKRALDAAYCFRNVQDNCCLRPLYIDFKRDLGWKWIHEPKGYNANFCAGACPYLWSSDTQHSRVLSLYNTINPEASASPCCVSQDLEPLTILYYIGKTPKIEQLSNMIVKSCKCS

[31] = biological target: T1, N(G),N(G)-dimethylarginine dimethylaminohydrolase 1; conditions: A549, 50 to 100 uM
Description: Inhibition of DDAH in human A549 cells assessed as decrease in serum-stimulated cell proliferation at 50 to 100 uM preincubated for 2 hrs followed by fetal bovine serum addition measured 24 hrs post compound treatment by BrdU incorporation assay

[32] = biological target: T1, N(G),N(G)-dimethylarginine dimethylaminohydrolase 1; assay: Inhibition of DDAH in lung fibroblasts isolated from late stage idiopathic pulmonary fibrosis patient assessed as reduction of TGF-beta-induced acid-soluble collagen levels at 50 uM after 24 hrs by sircol collagen assay
[33] = biological target: N(G),N(G)-dimethylarginine dimethylaminohydrolase 1 (Mus musculus) (UniProt Q9CWS0); assay: Inhibition of DDAH in mouse MLE12 cells assessed as decrease in serum-stimulated cell proliferation at 50 to 100 uM preincubated for 2 hrs followed by fetal bovine serum addition measured 24 hrs post compound treatment by BrdU incorporation assay; format: cell-based
Chain of N(G),N(G)-dimethylarginine dimethylaminohydrolase 1 (Mus musculus) (Q9CWS0 whole entry): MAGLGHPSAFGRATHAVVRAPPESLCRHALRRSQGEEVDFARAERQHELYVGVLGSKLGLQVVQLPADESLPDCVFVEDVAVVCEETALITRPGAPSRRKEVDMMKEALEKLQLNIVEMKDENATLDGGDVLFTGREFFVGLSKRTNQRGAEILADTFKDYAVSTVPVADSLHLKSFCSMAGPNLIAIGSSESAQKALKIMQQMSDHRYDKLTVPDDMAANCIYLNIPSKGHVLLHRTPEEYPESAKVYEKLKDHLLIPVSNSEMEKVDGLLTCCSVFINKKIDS

[34] = biological target: T1, N(G),N(G)-dimethylarginine dimethylaminohydrolase 1; assay: Inhibition of DDAH in human A549 cells assessed as downregulation of iNOS expression at 50 to 100 uM after 24 hrs by Western blot method; format: cell-based
[35] = Cytotoxicity against human A549 cells up to 300 uM by lactate dehydrogenase release assay; format: cell-based
[36] = biological target: T1, N(G),N(G)-dimethylarginine dimethylaminohydrolase 1; assay: Inhibition of DDAH in lung fibroblasts isolated from late stage idiopathic pulmonary fibrosis patient assessed as reduction of TGF-beta-induced acid-soluble collagen levels at 100 uM after 24 hrs by sircol collagen assay
[37] = biological target: T1, N(G),N(G)-dimethylarginine dimethylaminohydrolase 1; assay: Inhibition of DDAH in human A549 cells assessed as decrease in serum-stimulated cell proliferation at 3 to 100 uM preincubated for 2 hrs followed by fetal bovine serum addition measured 24 hrs post compound treatment by BrdU incorporation assay; format: cell-based
[38] = biological target: N(G),N(G)-dimethylarginine dimethylaminohydrolase 1 (Mus musculus) (UniProt Q9CWS0); assay: Inhibition of DDAH in mouse MLE12 cells assessed as decrease in serum-stimulated cell proliferation at 3 to 100 uM preincubated for 2 hrs followed by fetal bovine serum addition measured 24 hrs post compound treatment by BrdU incorporation assay; format: cell-based
[39] = biological target: T1, N(G),N(G)-dimethylarginine dimethylaminohydrolase 1; assay: Inhibition of DDAH in human A549 cells assessed as increase in intracellular ADMA levels at 10 to 100 uM after 24 hrs by ELISA relative to vehicle-treated control; format: cell-based
[40] = Cytotoxicity against mouse MLE12 cells up to 300 uM by lactate dehydrogenase release assay; format: cell-based
[41] = biological target: T1, N(G),N(G)-dimethylarginine dimethylaminohydrolase 1; assay: Inhibition of DDAH in human A549 cells assessed as reduction of A23187-induced apoptosis by measuring […] in mono and oligo nucleosome content at 20 to 100 uM after 24 hrs; format: cell-based
[42] = biological target: T1, N(G),N(G)-dimethylarginine dimethylaminohydrolase 1; assay: Inhibition of DDAH in human A549 cells assessed as reduction in intracellular nitric oxide levels at 10 to 100 uM after 24 hrs by Griess assay; format: cell-based
[43] = biological target: T1, N(G),N(G)-dimethylarginine dimethylaminohydrolase 1; assay: Reversible inhibition of recombinant human DDAH1 expressed in Escherichia coli BL21 Star (DE3) using SMTC as substrate assessed as decrease in L-citrulline and methanethiol production at 1 to 100 times IC50 preincubated for 1 hr followed by 100 fold dilution by CPM-based fluorimetric assay
[44] = biological target: T1, N(G),N(G)-dimethylarginine dimethylaminohydrolase 1; assay: Inhibition of DDAH in lung fibroblasts isolated from late stage idiopathic pulmonary fibrosis patient assessed as reduction of TGF-beta-induced acid-soluble collagen levels at 20 uM after 24 hrs by sircol collagen assay

PHENYLMERCURIC ACETATE
IC50 [1]: < 0.78 µM

COc1ccnc(C[S+]([O-])c2nc3cc(OC(F)F)ccc3[nH]2)c1OC (stereo not drawn) [PANTOPRAZOLE]
IC50 [2]: 63 µM

N=C1Sc2ccccc2C2=NCCCN12
inhibition [1]: Dose-dependent effect
inhibition [3]: Active
inhibition [4]: Active
inhibition [5]: 84%

C/N=c1\nc(-c2ccccc2)n(-c2ccccc2)s1
IC50 [1]: 13.2 µM

CC1=CC(=O)C(Cl)=C(C)/C1=N/S(=O)(=O)c1ccc(C)cc1
IC50 [1]: 5.5 µM

COCCCOc1ccnc(C[S+]([O-])c2nc3ccccc3[nH]2)c1C (stereo not drawn)
inhibition [6]: Active
inhibition [3]: Active
inhibition [4]: Active
inhibition [7]: Active

COc1ccc2[nH]c([S@@+]([O-])Cc3ncc(C)c(OC)c3C)nc2c1
inhibition [8]: Active
fold change (FC) [9]: 2.5
fold change (FC) [10]: 4
inhibition [6]: Active
inhibition [11]: Active
inhibition [12]: Active
inhibition [3]: Active
inhibition [13]: Active
inhibition [14]: Active
inhibition [15]: Active
inhibition [16]: Active
inhibition [17]: Active
inhibition [18]: Active
inhibition [19]: Active
inhibition [20]: Active
inhibition [21]: Active
inhibition [22]: Active
fold change (FC) [23]: 5
inhibition [24]: Active
inhibition [25]: Active
fold change (FC) [26]: 10
inhibition [4]: Active
inhibition [27]: Active
inhibition [5]: 37%
inhibition [28]: Active
inhibition [29]: Active
inhibition [7]: Active

CC1=CC(=O)C=C(C)C1=NS(=O)(=O)c1ccccc1
IC50 [1]: 9.03 µM

4-[sequence] ACID
inhibition [1]: Active

Cc1cccc(-c2nn(C(=S)Nc3ccccc3)cc2-c2ccnc3ccccc23)n1
inhibition [30]: Active

COCCNC(=N)NCCC[C@H](N)C(=O)O
inhibition [31]: Active
inhibition [32]: Active
inhibition [5]: 68%
inhibition [33]: Active

COc1ccc2[nH]c([S+]([O-])Cc3ncc(C)c(OC)c3C)nc2c1 (stereo not drawn) [OMEPRAZOLE]
inhibition [34]: Active
Activity [35]: Non-Toxic
inhibition [36]: Active
inhibition [37]: Active
inhibition [38]: Active
inhibition [3]: Active
inhibition [39]: Active
Activity [40]: Non-Toxic
inhibition [32]: Active
inhibition [41]: Active
inhibition [4]: Active
inhibition [42]: Active
IC50 [2]: 20 to 85 µM
inhibition [2]: Dose-dependent effect
inhibition [43]: Active
inhibition [7]: Active

COc1ccc2[nH]c([S+]([O-])Cc3ncc(C)c(OC)c3C)nc2n1 (stereo not drawn)
inhibition [3]: Active
inhibition [2]: Dose-dependent effect
inhibition [7]: Active

Cc1c(OCC(F)(F)F)ccnc1C[S+]([O-])c1nc2ccccc2[nH]1 (stereo not drawn)
inhibition [6]: Active
inhibition [3]: Active
inhibition [4]: Active
inhibition [2]: Dose-dependent effect
inhibition [44]: Active
inhibition [7]: Active

CP(=O)(O)c1nc2ccccc2s1
IC50 [2]: 9.9 µM

O=c1c2ccccc2[se]n1-c1ccccc1
inhibition [1]: Active
